{"source": "patent US20020086865A1", "about": "“Use of growth hormone secretagogues for stimulating or increasing appetite” (priority 2000, published 2002)", "key": {"[1]": {"test_system": "free-feeding rats", "conditions": "intracerebroventricular administration; cited from earlier work"}, "[2]": {"conditions": "orally active; cited from earlier work"}, "[3]": {"test_system": "satiated rats", "conditions": "s.c.; cited from earlier work"}, "[4]": {"test_system": "healthy, young male subjects", "conditions": "100 mg single oral dose in a solution of water, fasted state; four subjects on active", "protocol": "The test compound or placebo was administered orally in a solution of water to the subjects in a fasted state. The doses evaluated were 0.3, 1, 3, 10, 30 and 100 mg of the test compound or placebo. Each participant was studied at only one dose level."}, "[5]": {"test_system": "rats", "conditions": "intracerebroventricular; cited from earlier work"}, "[6]": {"test_system": "young women with anorexia nervosa", "conditions": "cited from earlier work"}}, "note": "Square brackets hold non-standard residues; d marks the D form. Peptide text beside a SMILES is read from it. dTrp(2-Me) = Cc1[nH]c2ccccc2c1C[C@@H](N)C(=O)O; d2Nal = N[C@H](Cc1ccc2ccccc2c1)C(=O)O"}
{"compound": "C[C@H](NC(=O)[C@@H](Cc1ccc2ccccc2c1)NC(=O)[C@@H](C)N)C(=O)N[C@@H](Cc1c[nH]c2ccccc12)C(=O)N[C@H](Cc1ccccc1)C(=O)N[C@@H](CCCCN)C(N)=O", "note": "[KP-102] (H-[dA][d2Nal]AW[dF]K-NH2)", "values": [{"measurement": "food intake", "setting": "[1]", "result": "increased food intake"}]}
{"compound": "CC(C)(N)C(=O)N[C@H](COCc1ccccc1)C(=O)N1CCC2(CC1)CN(S(C)(=O)=O)c1ccccc12", "note": "[MK-677]", "values": [{"measurement": "diet-induced catabolism", "setting": "[2]", "result": "reverses diet-induced catabolism"}]}
{"compound": "Cc1[nH]c2ccccc2c1C[C@@H](NC(=O)[C@@H](N)Cc1cnc[nH]1)C(=O)N[C@@H](C)C(=O)N[C@@H](Cc1c[nH]c2ccccc12)C(=O)N[C@H](Cc1ccccc1)C(=O)N[C@@H](CCCCN)C(N)=O", "note": "[hexarelin] (H-H[dTrp(2-Me)]AW[dF]K-NH2)", "values": [{"measurement": "GH release", "setting": "[3]", "result": "dose dependently stimulated"}, {"measurement": "feeding behavior", "setting": "[3]", "result": "dose dependently stimulated"}]}
{"compound": "CC(C)(N)C(=O)N[C@H](COCc1ccc(F)cc1F)C(=O)N1CCC2=NN(CC(F)(F)F)C(=O)[C@]2(Cc2ccccn2)C1.O=C(O)C(O)C(O)C(=O)O", "note": "[test compound, (L)-(+)-tartaric acid salt of 2-amino-N-(1-(R)-(2,4-difluoro-benzyloxymethyl)-2-oxo-2-(3-oxo-3a-(R)-pyridin-2-ylmethyl-2-(2,2,2-trifluoro-ethyl)-2,3,3a,4,6,7-hexahydro-pyrazolo-[4,3-c]pyridin-5-yl)-ethyl)-2-methyl-propionamide]", "values": [{"measurement": "subjects who self-reported feeling hungry (case report forms)", "setting": "[4]", "result": "two of the four subjects"}]}
{"compound": "GHRP-6", "values": [{"measurement": "GH release", "setting": "[3]", "result": "dose dependently stimulated"}, {"measurement": "feeding behavior", "setting": "[3]", "result": "dose dependently stimulated"}, {"measurement": "eating", "setting": "[5]", "result": "stimulated eating"}, {"measurement": "plasma growth hormone responses", "setting": "[5]", "result": "without affecting plasma growth hormone responses"}]}
{"compound": "recombinant growth hormone: recombinant growth hormone", "values": [{"measurement": "IGF-1 levels", "setting": "[6]", "result": "normalizes IGF-1 levels"}, {"measurement": "body weight", "setting": "[6]", "result": "increases body weight"}, {"measurement": "eating behavior", "setting": "[6]", "result": "improves eating behavior"}]}
